Earlier results in patent US8507466B2, “Oils enriched with diacylglycerols and phytosterol esters and unit dosage forms thereof for use in therapy” (Enzymotec Ltd., priority 2003, dated 2013).

Assays:
[1] = tested on: tumor cell growth (LNCaP and HT-29); conditions: compared to cholesterol
[2] = tested on: LDL; conditions: incubation of LDL with copper ion

| SMILES | decrease in cell growth [1] | increase in apoptosis [1] | elevation of LDL oxidation [2] |
| --- | --- | --- | --- |
| CC[C@H](CC[C@@H](C)[C@H]1CC[C@H]2[C@@H]3CC=C4C[C@@H](O)CC[C@]4(C)[C@H]3CC[C@]12C)C(C)C [beta-sitosterol] | 24% | 4 fold | – |
| CCCCC/C=C\C/C=C\CCCCCCCC(=O)O [linoleic acid (LA), linoleic acid] | – | – | 22% |
